Experimental data taken from US9221868B2, “Uridine di- or tri-phosphate derivatives and uses thereof” (BAR-ILAN UNIVERSITY, priority 2010, dated 2015).
“And” between values parts separate entries of the source, which are not always exact repeats. Identical values can stand only once.

What was measured:
[1] = Stability in human blood serum (HPLC); details: for half-life at 0.14 mg/ml: human, human blood serum diluted in RPMI-1640
Method: Human blood serum was obtained from a blood bank (Tel-Hashomer Hospital, Israel). All stability experiments were performed in duplicates.
The assay mixture containing 0.1 mg each analogue in deionized water (4.5 μl), human blood serum (180 μl) and RPMI-1640 medium (540 μl) (Eliahu et al., 2010a) was incubated at 37° C. for 0-24 h. At 0.5-12 h intervals, each sample was heated to 80° C. for 30 min, treated with CM Sephadex (1-2 mg), shaken for 2 h and centrifuged for 6 min (12000 rpm), and the aqueous layer was collected and extracted with chloroform (2×500 μl). The aqueous layer was freeze-dried and then dissolved in deionized water (100 μl). Samples were loaded onto an activated Starta X-AW weak anion exchange cartridge, washed with H2O (1 ml) and eluted with MeOH:H2O (1:1, 1 ml) followed by NH4OH:MeOH:H2O (2:25:73, 1 ml), and then freeze-dried. The resulting residue was analyzed by HPLC on a Gemini analytical column (5μ C-18 557 110 A; 150 mm×4.60 mm), using gradient elution with solvent system I (for UDP and 12—A:B 96:4 over 10 min) or II (for uridine-5′-O-(α-borano diphosphate) and 13A—A:B 97.5:2.5 over 10 min) at a flow rate of 1 ml/min. […] The percentage of compound degradation was calculated vs. control, to take into consideration the degradation of the compounds due to the work up following the enzymatic reaction. Therefore, each of the samples was compared to a control which was put through the same workup, but to which no serum was added. The percentage of degradation was calculated from the area under the curve of the nucleoside monophosphate peak, after subtraction of the control, which is the amount of the nucleoside monophosphate peak formed due to chemical hydrolysis.

physchem = details: for half-life / Half-life (t1/2) of hydrolysis at pH 1.4: buffer, pH 1.4; for Rate constant of phosphate ester hydrolysis at pH 1.4: pH 1.4, 37° C., pseudo-first-order
Method: (§1) All stability experiments were performed in duplicates.
The stability of UDP, 11, 12 and 13A in a buffer solution (pH 1.4) was evaluated by ^31P NMR at 37° C. for monitoring possible dephosphorylation products (the signal of the phosphate hydrolysis products is at ˜0 ppm, while that of the borano phosphate analogues is at ˜85 ppm). NMR spectra were recorded on a Bruker DMX-600 spectrometer with a ^31P NMR probe (isotope frequency of 240 MHz) using 85% H3PO4 as an external reference.
Sodium salts of UDP, 11, 12 and 13A were dissolved in 0.45 ml of KCl/HCl buffer (pH 1.4) and D2O (0.05 ml) was added. The final pH was adjusted to pH 1.4. pH measurements were performed with an Metrohm pH electrode and a Metrohm 827 meter. Spectra were recorded at 15 min, 1 h, or 24 h time intervals at 37° C. For experiments that were several days long, the solution was kept in an oil bath at 37° C. and spectra were recorded at ca. 24 h time intervals. The phosphate ester hydrolysis rate was determined by measuring the change of the integration of one of the phosphates signals of the starting material with time.

human NPP1 = target: T1, human NPP1 (Homo sapiens, UniProt P22413); assay: Hydrolysis by NPP1 (HPLC); type: in vitro ADME; details: 2 h at 37° C., pH 8.5
T1 construct: Center of Research in Rheumatology and Immunology, Laval University (Québec, Canada), provided and not purchased
T1 sequence (P22413 1-925): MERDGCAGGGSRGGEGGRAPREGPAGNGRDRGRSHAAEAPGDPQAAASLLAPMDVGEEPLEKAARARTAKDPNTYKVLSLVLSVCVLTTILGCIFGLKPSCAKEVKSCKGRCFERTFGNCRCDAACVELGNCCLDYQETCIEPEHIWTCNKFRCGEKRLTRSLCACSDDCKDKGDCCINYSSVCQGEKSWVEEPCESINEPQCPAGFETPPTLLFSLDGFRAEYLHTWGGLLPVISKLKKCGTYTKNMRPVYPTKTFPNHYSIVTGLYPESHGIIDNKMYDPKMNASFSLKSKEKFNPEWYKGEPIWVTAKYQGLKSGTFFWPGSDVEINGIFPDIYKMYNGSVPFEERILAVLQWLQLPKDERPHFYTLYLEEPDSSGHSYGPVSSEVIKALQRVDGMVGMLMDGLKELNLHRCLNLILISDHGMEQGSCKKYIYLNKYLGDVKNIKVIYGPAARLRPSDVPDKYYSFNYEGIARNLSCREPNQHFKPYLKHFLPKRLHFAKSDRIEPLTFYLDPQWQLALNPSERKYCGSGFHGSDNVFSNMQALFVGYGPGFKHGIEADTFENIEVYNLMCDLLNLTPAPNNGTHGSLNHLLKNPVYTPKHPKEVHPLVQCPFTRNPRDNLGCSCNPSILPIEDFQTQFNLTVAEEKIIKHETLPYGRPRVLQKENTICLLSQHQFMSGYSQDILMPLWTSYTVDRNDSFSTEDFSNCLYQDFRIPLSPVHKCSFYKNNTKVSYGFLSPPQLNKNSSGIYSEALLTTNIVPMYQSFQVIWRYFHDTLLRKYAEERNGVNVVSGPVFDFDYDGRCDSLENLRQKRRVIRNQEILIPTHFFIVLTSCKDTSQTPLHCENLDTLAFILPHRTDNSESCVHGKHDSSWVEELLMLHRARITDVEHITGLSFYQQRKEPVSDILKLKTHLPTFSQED
Method: as §1
(§2) In this study, the hydrolysis rate of analogue 13A as compared to UDP and analogue 12, by human NPP1 and NPP3 after incubation at 37° C. in appropriate buffer, was determined.
(§3) 56.15 μg or 57.78 μg of human NPP1 or NPP3 extract, respectively, was added to 0.575 ml the incubation mixture (1 mM […], 200 mM NaCl, 10 mM KCl and 100 mM Tris, pH 8.5) and preincubated at 37° C. for 3 min. Reaction was initiated by the addition of 0.015 ml of 4 mM of UDP, 12 or 13A. The reaction was stopped after incubation of 2 h or 3 h with NPP1 or NPP3, respectively, by transferring a 0.1 ml aliquot from the reaction mixture to 0.350 ml ice-cold 1 M perchloric acid. These samples were centrifuged for 1 min at 10000×g. Supernatants were neutralized with 1 M KOH in 4° C. and centrifuged 1 min at 10000×g. The reaction mixture was filtered and freeze-dried.

human NPP3 = target: T2, human NPP3 (Homo sapiens, UniProt O14638); assay: Hydrolysis by NPP3 (HPLC); type: in vitro ADME; details: 3 h at 37° C., pH 8.5
T2 construct: Center of Research in Rheumatology and Immunology, Laval University (Québec, Canada), provided and not purchased
T2 sequence (O14638 1-875): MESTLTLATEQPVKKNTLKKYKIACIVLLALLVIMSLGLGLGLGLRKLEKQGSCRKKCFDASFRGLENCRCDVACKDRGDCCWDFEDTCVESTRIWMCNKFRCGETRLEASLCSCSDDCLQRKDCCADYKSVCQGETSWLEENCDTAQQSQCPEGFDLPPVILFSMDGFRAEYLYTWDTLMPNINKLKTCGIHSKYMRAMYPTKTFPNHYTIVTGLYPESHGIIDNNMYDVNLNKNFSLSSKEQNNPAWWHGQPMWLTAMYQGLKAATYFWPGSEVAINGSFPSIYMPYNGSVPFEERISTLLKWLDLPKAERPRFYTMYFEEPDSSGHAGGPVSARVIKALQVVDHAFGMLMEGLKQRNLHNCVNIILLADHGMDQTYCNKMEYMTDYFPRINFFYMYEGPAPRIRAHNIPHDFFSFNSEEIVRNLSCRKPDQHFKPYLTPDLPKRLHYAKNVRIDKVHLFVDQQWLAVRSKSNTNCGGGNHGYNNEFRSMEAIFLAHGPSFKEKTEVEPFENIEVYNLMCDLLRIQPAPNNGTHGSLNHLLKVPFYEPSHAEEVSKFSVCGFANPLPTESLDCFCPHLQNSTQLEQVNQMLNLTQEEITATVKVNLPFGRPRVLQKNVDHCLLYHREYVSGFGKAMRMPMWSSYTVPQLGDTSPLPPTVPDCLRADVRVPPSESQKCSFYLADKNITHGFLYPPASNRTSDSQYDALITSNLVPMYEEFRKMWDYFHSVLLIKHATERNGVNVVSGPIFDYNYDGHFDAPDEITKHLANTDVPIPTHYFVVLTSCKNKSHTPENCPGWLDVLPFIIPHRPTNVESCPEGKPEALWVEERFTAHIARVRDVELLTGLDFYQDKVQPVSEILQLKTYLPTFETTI
Method: as §1, §2, §3

Row | half-life at 0.14 mg/ml [1] [h] | half-life (physchem) [h] | Hydrolysis percentage by NPP1 (human NPP1) | Hydrolysis percentage by NPP3 (human NPP3) [%] | Half-life (t1/2) of hydrolysis at pH 1.4 (physchem) [days] | Rate constant of phosphate ester hydrolysis at pH 1.4 (physchem) | Half-life in human blood serum ([1]; human blood serum and RPMI-1640, 37° C.) [h] | SMILES
1 | 17 | 16.9 | 15% | 28 |  |  |  | [BH3-][P+](O)(OCC1OC(n2cc(OC)c(=O)[nH]c2=O)C(O)C1O)OP(=O)(O)O (single isomer, unassigned) [Analogue 13A, 5-methoxyuridine-5′-O-(α-boranodiphosphate)]
2 | 11.9 | ~312 | 49% and 51% | 36 | 13 | 6.25×10^−7 s^−1 |  | COc1cn([C@@H]2O[C@H](COP(=O)(O)OP(=O)(O)O)[C@@H](O)[C@H]2O)c(=O)[nH]c1=O [Analogue 12, 5-methoxyuridine diphosphate]
3 |  |  | 50% | 45 | ~12 | 6.66×10^−7 s^−1 | 2.4 | O=c1ccn([C@@H]2O[C@H](COP(=O)(O)OP(=O)(O)O)[C@@H](O)[C@H]2O)c(=O)[nH]1 [UDP, reference compound]
